Legend:
male ICR mouse [1] = test: Acetic acid-induced writhing test in mouse; format: in vivo; conditions: Mus musculus; for ED50: unit not given (method doses in mg/kg), read-out: AA Writhing: ED50; for inhibition in vivo at 10 mg/kg: 1 h, at 10 po (method: 10 mg/kg oral, 1 hour before acetic acid), read-out: AA Writhing: Suppression ratio of Pain response
In short: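 Male ICR mice (30 to 35 g) dosed orally at 10 mg/kg, then given 0.8% acetic acid i.p. 1 h later. Writhes counted for 10 min and expressed as % suppression against vehicle. ED50 derived by linear regression over at least three doses.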

male ICR mouse [2] = test: Formalin test - late phase in mouse; format: in vivo; conditions: po, unit inferred
Procedure: 3. Formalin Test—Late Phase in Mouse
A formalin test is another model for measuring an analgesic effect of drugs. […] These pain behaviors have a biphasic pattern, and therefore they are divided into an early-phase behavior within […] after the formalin administration; and a late-phase behavior up to 10 to 60 minutes. The medicinal effect observed in the formalin test-late phase means an analgesic effect of the test material in the inflammatory pain model, and also becomes a measure that may predict the medicinal effects in the neuropathic pain model (Vissers K et. al, 2003). A test material was orally administered to a male ICR mouse weighing 30 to 35 g. After 1 hour of the oral administration, 20 μl of a 2.5% formalin solution was subcutaneously injected into the planta surface of a mouse's hindlimb to induce pain. […] The analgesic effect of the test material is represented by the ‘suppression ratio of pain response’ {[(Pain response time of Vehicle-administered group−Pain response time of Test material-administered group)/(Pain response time of Vehicle-administered group)]×100%}, or ‘50% of Effective amount (ED50; an amount of a test material that is required to suppress 50% of pain behaviors) of Test material’. The ED50 (median effective dose) was determined by calculating the suppression ratio of pain response in at least three doses of test materials and subjecting to the linear regression.

5-HT1A receptor = 5-HT1A receptor (Rattus norvegicus (Rat), UniProt P19327); test: Binding to 5-HT1A receptor ([3H]-8-OH-DPAT, rat cortical membranes); set-up: species or system Sprague-Dawley (SD) rats; conditions: for IC50: 2 nM [3H]-8-OH-DPAT, read-out: 5-HT1A: IC50 (Concentration required to be 50% suppressed); for inhibition at 1 µM: 1 h, read-out: 5-HT1A: Suppression
Procedure: Binding to 5-HT1A Receptor
6-week-old Sprague-Dawley (SD) rats were anesthetized in an ether container for 5 minutes, brains were separated from rats, and cortical regions were then separated from the brains of the rats. The cortical regions of the rats were put into a Tris-HCl buffer solution (50 mM, pH 7.4) and homogenized, and the homogenate was centrifuged twice at 4? at a rotary speed of 50,000 g to obtain a precipitate (membrane protein). The precipitate was put into a buffer solution, and homogenized, which was used later as a protein source. 2 nM [3H]-8-OH-DPAT was used as a radioactive isotope, and 10 uM serotonin was used to remove non-specific bindings. 25 ul of the compound, 100 ul of an aqueous radioactive isotope solution, and 100 ul of the protein source were put together, and kept at 25° C. for 1 hour. The resulting mixture was filtered with a membrane filter in a 96-well harvester when the 96-well plate reaction was completed. The competitivity of the compound to [3H]-8-OH-DPAT was determined by taking the membrane filter and measuring the radioactivity of the membrane filter in a scintillation counter, and an IC50 value was determined by measuring the increasing concentration of the compound. The specific reaction of the compound accounted for 90% or more. The general experiments were carried out according to the method by Middlemiss et al. (1984, Eur. J. Pharmacol.).

5-HT2A receptor = 5-HT2A receptor (Rattus norvegicus (Rat), UniProt P14842); test: Binding to 5-HT2A receptor ([3H]-Ketanserin, rat cortical membranes); set-up: species or system Sprague-Dawley (SD) rats; conditions: for IC50: 0.5 nM [3H]-Ketanserin, read-out: 5-HT2A: IC50 (Concentration required to be 50% suppressed); for inhibition at 1 µM: 1 h, read-out: 5-HT2A: Suppression
Procedure: Binding to 5-HT2A Receptor
6-week-old Sprague-Dawley (SD) rats were anesthetized in an ether container for 5 minutes, brains were separated from rats, and cortical regions were then separated from the brains of the rats. The cortical regions of the rats were put into a Tris-HCl buffer solution (50 mM, pH 7.7) and homogenized, and the homogenate was centrifuged twice at 4° C. at a rotary speed of 50,000 g to obtain a precipitate (membrane protein). The precipitate was put into a buffer solution, and homogenized, which was used later as a protein source. 0.5 nM [3H]-Ketanserin was used as a radioactive isotope, and 10 uM serotonin was used to remove non-specific bindings. 25 ul of the compound, 100 ul of an aqueous radioactive isotope solution, and 100 ul of the protein source were put together, and kept at 25° C. for 1 hour. The resulting mixture was filtered with a membrane filter in a 96-well harvester when the 96-well plate reaction was completed. The competitivity of the compound to [3H]-Ketanserin was determined by taking the membrane filter and measuring the radioactivity in a scintillation counter, and an IC50 value was determined by measuring the increasing concentration of the compound. The specific reaction of the compound accounted for 90% or more. The general experiments were carried out according to the method by Leysen et al. (1982, Eur. J. Pharmacol).

5-HT2A receptor, sequence (P14842 whole entry): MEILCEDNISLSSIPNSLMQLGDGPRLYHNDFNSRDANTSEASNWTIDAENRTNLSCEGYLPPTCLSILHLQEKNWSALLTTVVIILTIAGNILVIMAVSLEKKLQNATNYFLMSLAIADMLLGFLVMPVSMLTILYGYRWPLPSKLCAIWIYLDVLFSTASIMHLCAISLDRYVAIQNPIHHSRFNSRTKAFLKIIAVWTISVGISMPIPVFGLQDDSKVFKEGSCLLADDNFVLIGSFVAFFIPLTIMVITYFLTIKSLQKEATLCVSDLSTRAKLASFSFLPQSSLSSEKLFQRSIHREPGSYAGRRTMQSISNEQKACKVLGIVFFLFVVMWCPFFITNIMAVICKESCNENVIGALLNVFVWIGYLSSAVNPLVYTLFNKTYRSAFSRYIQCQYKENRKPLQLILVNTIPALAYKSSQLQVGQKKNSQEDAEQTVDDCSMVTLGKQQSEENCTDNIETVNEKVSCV
5-HT1A receptor, sequence (P19327 whole entry): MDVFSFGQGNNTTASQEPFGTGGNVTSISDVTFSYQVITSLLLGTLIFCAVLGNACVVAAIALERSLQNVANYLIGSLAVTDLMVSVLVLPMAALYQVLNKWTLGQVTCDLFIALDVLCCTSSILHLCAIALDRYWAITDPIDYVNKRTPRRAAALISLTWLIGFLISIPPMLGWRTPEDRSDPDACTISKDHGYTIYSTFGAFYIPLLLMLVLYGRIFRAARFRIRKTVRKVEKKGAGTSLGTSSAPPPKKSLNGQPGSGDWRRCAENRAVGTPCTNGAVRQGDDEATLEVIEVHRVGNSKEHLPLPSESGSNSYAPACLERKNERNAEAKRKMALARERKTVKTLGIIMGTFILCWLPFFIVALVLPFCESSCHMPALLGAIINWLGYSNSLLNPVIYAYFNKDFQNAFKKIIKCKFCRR

| SMILES | ED50 (male ICR mouse [1]; po) | ED50 (male ICR mouse [2]) | IC50 (5-HT1A receptor) | IC50 (5-HT2A receptor) | ED50 (male ICR mouse [1]; ip) | inhibition at 1 µM (5-HT1A receptor) | inhibition at 1 µM (5-HT2A receptor) | inhibition in vivo at 10 mg/kg (male ICR mouse [1]; po) |
| --- | --- | --- | --- | --- | --- | --- | --- | --- |
| COc1ccc(N2CCN(CCC(OC(N)=O)c3ccccc3)CC2)cc1 (stereo not drawn) [Example 20, Carbamic acid 3-[4-(4-methoxy-phenyl)-piperazin-1-yl]-1-phenyl-propyl ester] | 3.12 mg/kg | 5.77 mg/kg | 19800 nM | 5850 nM |  |  |  |  |
| Cc1ccccc1N1CCN(CCC(OC(N)=O)c2ccccc2)CC1 (stereo not drawn) [Example 37, Carbamic acid 1-phenyl-3-(4-o-tolylpiperazin-1-yl)-propyl ester] |  | 42.4 mg/kg |  |  | 1.96 mg/kg |  |  |  |
| NC(=O)OC(CCN1CCN(c2ccccc2)CC1)c1ccc(Cl)cc1 (stereo not drawn) [Example 2, Carbamic acid 1-(4-chloro-phenyl)-3-(4-phenyl-piperazin-1-yl)-propyl ester] | 2.14 mg/kg | 2.2 mg/kg |  |  |  | 64.6% | 84.6% |  |
| NC(=O)OC(CCN1CCN(c2cccc(Cl)c2)CC1)c1ccccc1 (stereo not drawn) [Example 36, Carbamic acid 3-[4-(3-chloro-phenyl)-piperazin-1-yl]-1-phenyl-propyl ester] | 17.5 mg/kg |  | 93.8 nM | 61.5 nM |  |  |  |  |
| COc1ccccc1N1CCN(CCC(OC(N)=O)c2ccc(F)cc2)CC1 (stereo not drawn) [Example 78, Carbamic acid 1-(4-fluoro-phenyl)-3-[4-(2-methoxy-phenyl)-piperazin-1-yl]-propyl ester] |  |  |  |  |  | 79% | 71.5% | 34% |
| COc1ccccc1N1CCN(CCC(OC(N)=O)c2ccccc2)CC1 (stereo not drawn) [Example 27, Carbamic acid 3-[4-(2-methoxy-phenyl)-piperazin-1-yl]-1-phenyl-propyl ester] | 7.8 mg/kg |  | 97.6 nM | 164 nM |  |  |  |  |
| COc1ccc(N2CCN(CC[C@H](OC(N)=O)c3ccccc3)CC2)cc1 [Example 106, (S)-carbamic acid 3-[4-(4-methoxy-phenyl)-piperazin-1-yl]-1-phenyl-propyl ester] |  | 12.5 mg/kg |  |  | 1.43 mg/kg |  |  |  |
| NC(=O)OC(CCN1CCN(c2ccc(F)cc2)CC1)c1ccc(F)cc1 (stereo not drawn) [Example 81, Carbamic acid 1-(4-fluoro-phenyl)-3-[4-(4-fluoro-phenyl)-piperazin-1-yl]-propyl ester] |  |  |  |  |  | 60.9% | 93.9% | 52% |
| NC(=O)OC(CCN1CCN(c2ccccc2)CC1)c1cccc(Cl)c1 (stereo not drawn) [Example 7, Carbamic acid 1-(3-chloro-phenyl)-3-(4-phenyl-piperazin-1-yl)-propyl ester] |  |  |  |  |  | 76.4% | 93.7% | 59% |
| NC(=O)OC(CCN1CCN(c2ccccc2F)CC1)c1ccccc1 (stereo not drawn) [Example 41, Carbamic acid 3-[4-(2-fluoro-phenyl)-piperazin-1-yl]-1-phenyl-propyl ester] |  | 33.2 mg/kg | 160 nM | 110 nM | 0.34 mg/kg |  |  |  |
| Cc1ccccc1N1CCN(CCC(OC(N)=O)c2ccc(F)cc2)CC1 (stereo not drawn) [Example 80, Carbamic acid 1-(4-fluoro-phenyl)-3-(4-o-tolyl-piperazin-1-yl)-propyl ester] |  |  |  |  |  | 75.3% | 76.8% | 29% |
| COc1ccc(N2CCN(CC[C@@H](OC(N)=O)c3ccccc3)CC2)cc1 [Example 102, (R)-carbamic acid 3-[4-(4-methoxy-phenyl)-piperazin-1-yl]-1-phenyl-propyl ester] | 3.15 mg/kg | 4.77 mg/kg | 4310 nM | 2780 nM |  |  |  |  |
| NC(=O)OC(CCN1CCN(c2ccc([N+](=O)[O-])cc2)CC1)c1ccccc1 (stereo not drawn) [Example 16, Carbamic acid 1-phenyl-3-[4-(4-nitro-phenyl)-piperazin-1-yl]-propyl ester] |  | 11.6 mg/kg | 6570 nM | 2050 nM | 2.92 mg/kg |  |  |  |
| NC(=O)OC(CCN1CCN(c2ccc([N+](=O)[O-])cc2)CC1)c1ccc(F)cc1 (stereo not drawn) [Example 79, Carbamic acid 1-(4-fluoro-phenyl)-3-[4-(4-nitro-phenyl)-piperazin-1-yl]-propyl ester] |  |  |  |  |  | 29.6% | 29.6% | 70% |
